What all share (assay): DTP human tumour cell line panel, 48 h
Test [1] concerns CAKI-1 renal.
Test [2] concerns CCRF-CEM leukemia.
Test [3] relates to EKVX NSCLC.
For test [4], the system named is HCC-2998 colon.
In test [5] the test system is LOX IMVI melanoma.
For test [6], the system named is MCF7 breast.
Test [7] deals with MDA-MB-231 breast.
For test [8], the system named is MDA-N.
The test system of test [9] is NCI-H226 lung.
For test [10], the system named is NCI-H23 lung.
Test [11] relates to OVCAR-8 ovarian.
For test [12], the system named is SF-268 CNS.
Test [13] concerns SF-295 CNS.
Test [14] relates to SK-MEL-2 melanoma.
The test system of test [15] is SN12C renal.
Test [16] has as its system SNB-75 CNS.
Test [17] deals with TK-10 renal.
Test [18] deals with UACC-62 melanoma.
Test [19] relates to DU-145 prostate.

This note sets out measurements from PubChem BioAssay (NCI).

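Cells were grown in 96-well plates and exposed to each compound for 48 hours at five concentrations; endpoints were interpolated linearly between bracketing concentrations, or set to the highest concentration if not reached. TGI is the concentration that stops growth completely.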 Some results are limits rather than exact numbers.

On to `C[C@H]1O[C@@H](C(C)(C)C)OC(=O)[C@@H]1C(OC(=O)c1ccccc1)c1cccc2ccccc12` (some centres undefined), for which the TGI in [1], in [2], in test [3], in test [4], in test [5] and in [6] was above 100 µM throughout. Moreover, the TGI in test [7], in test [8], in test [9], in test [10], in [11] and in test [12] was above 100 µM in each case. In addition, the TGI in [13], in test [14], in [15], in [16], in test [17] and in test [18] was above 100 µM each time.

For the compound `O=C1NC(=Nc2ccccc2)C(=Nc2ccccc2)N1c1ccccc1`, the TGI in test [1] was found to be 31.7 µM; in test [2] it was 76.3 µM; in test [19], 25.2 µM; in test [3], 31.5 µM; in [4], 30.7 µM; in test [5], 30.1 µM. The TGI in test [7] worked out at 35.6 µM; in test [8], 25.6 µM; in [9], 32 µM; in test [10] it was 30.8 µM; in test [11], 29.4 µM; in [12], 34 µM. The total growth inhibition concentration (TGI) in test [13] turned out to be 29.4 µM; in test [14] it was 29.3 µM; in test [15] it was 30.5 µM; in test [16], 30.9 µM; in test [17], 30.8 µM; in test [18] it was 25.3 µM.

Regarding `Cc1ccc(S(=O)(=O)NC(=O)NC(CCC(N)=O)C(=O)O)cc1` (centres undefined), the total growth inhibition concentration (TGI) in test [2], in test [19], in test [5], in test [6], in [7] and in test [8] was above 100 µM in each case. Also, the TGI in [10], in test [11], in test [12], in test [13], in test [14] and in test [15] was above 100 µM each time. Also, the concentration for total growth inhibition (TGI) in test [16], in test [17] and in [18] was above 100 µM each time.

Turning to `C/C(O[Si](C(C)C)(C(C)C)C(C)C)=C(\C)C(=O)N(C)c1ccccc1Cl`, the TGI in test [1], in test [19], in [3], in test [5], in test [7] and in test [9] was above 100 µM in each case. The TGI in [10], in test [11], in [12], in [13], in test [15] and in test [16] was above 100 µM in each case. In addition, in [17], the concentration for total growth inhibition (TGI) is above 100 µM.

`C[n+]1cn(-c2nc3ccccc3nc2[N-]S(=O)(=O)c2ccccc2)c2ccccc21`: the total growth inhibition concentration (TGI) in test [1], in test [2], in [3], in test [4], in test [5] and in test [6] was above 100 µM each time. The total growth inhibition concentration (TGI) in test [7], in test [8], in [9], in test [10], in test [11] and in test [12] was above 100 µM throughout. Further, the TGI in test [13], in [14], in test [15], in test [16], in [17] and in test [18] was above 100 µM each time.

For `Cc1ccc(/S(Cc2ccccc2)=N\S(=O)(=O)c2ccc(C)cc2)cc1` (centres undefined), the TGI in test [2], in test [19], in [3], in test [6], in test [8] and in test [9] was above 100 µM in each case. The concentration for total growth inhibition (TGI) in [10], in [11], in test [12], in test [13], in test [15] and in test [17] was above 100 µM each time.

In the case of `C[n+]1ccccc1/C1=c2\cc/c([nH]2)=C(\c2cccc[n+]2C)C2=N/C(=C(/c3cccc[n+]3C)C3C=CC(N3)/C(c3cccc[n+]3C)=C3/C=CC1=N3)C=C2`, the TGI in test [1], in [2], in [19], in [3], in test [4] and in [5] was above 100 µM throughout. The TGI in test [6], in [8], in test [9], in test [10], in test [11] and in test [12] was above 100 µM in each case. Further, the TGI in test [13], in test [14], in test [15], in [17] and in test [18] was above 100 µM each time.

In the case of `O=C1NC(=Nc2ccccc2Cl)N/C1=C\c1ccc(Cl)cc1Cl`, the TGI in [1], in [2], in [19], in test [3], in test [4] and in test [5] was above 100 µM in each case. Besides, the total growth inhibition concentration (TGI) was above 100 µM in test [6]; above 100 µM in [8]; 57.6 µM in test [9]; above 100 µM in [10]; above 100 µM in test [11]; above 100 µM in test [12]. The TGI is above 100 µM in [13]; 58.4 µM in [14]; 73.6 µM in test [15]; 93 µM in [16]; above 100 µM in [17]; above 100 µM in [18].
